Experimental data taken from US12702691B2, “Extract of an herbal composition as antimicrobial and/or antibiofilm agent” (ALPHANOSOS S.A.S., priority 2016, dated 2026).

What was measured:
B-A17 = experiment: Planktonic growth with extract and antibiotic relative to growth without both (Example 14); assay type: cell-based
Experimental: (§1) Starting from the herbal composition, the corresponding water extracts (or processed samples) was prepared according to the previously described Method B using 2.06 g of the above herbal composition with 40 mL water with 100 g/L sucrose for water extraction and including the decantation step before filtration. In an independent water extract preparation without sucrose, it has been measured that 2.06 g/40 mL of herbal composition corresponds to 14.5 g/L as deduced from the weight of the lyophilized dry herbal extract.
(§2) In Example 14 we calculate the growth of the bacteria in presence of antibiotic and/or herbal mix relative to the growth in the absence of both antibiotic and herbal mix extract.

B-A21 = experiment: as above; assay type: cell-based
Experimental: as §1, §2

[1] = M[20C]-576 0 μg/mL, antibiotic 3.91 μg/mL
[2] = M[20C]-576 0 μg/mL, antibiotic 7.81 μg/mL
[3] = M[20C]-576 0 μg/mL, antibiotic 15.63 μg/mL
[4] = M[20C]-576 0 μg/mL, antibiotic 31.25 μg/mL
[5] = M[20C]-576 0 μg/mL, antibiotic 62.50 μg/mL
[6] = M[20C]-576 0 μg/mL, antibiotic 125 μg/mL
[7] = M[20C]-576 0 μg/mL, antibiotic 250 μg/mL
[8] = M[20C]-576 0 μg/mL, antibiotic 500 μg/mL
[9] = M[20C]-576 0 μg/mL, antibiotic 1000 μg/mL
[10] = M[20C]-576 0 μg/mL, antibiotic 2000 μg/mL
[11] = M[20C]-576 0 μg/mL, antibiotic 4000 μg/mL
[12] = M[20C]-576 90.6 μg/mL, antibiotic 3.91 μg/mL
[13] = M[20C]-576 90.6 μg/mL, antibiotic 7.81 μg/mL
[14] = M[20C]-576 90.6 μg/mL, antibiotic 15.63 μg/mL
[15] = M[20C]-576 90.6 μg/mL, antibiotic 31.25 μg/mL
[16] = M[20C]-576 90.6 μg/mL, antibiotic 62.50 μg/mL
[17] = M[20C]-576 90.6 μg/mL, antibiotic 125 μg/mL
[18] = M[20C]-576 90.6 μg/mL, antibiotic 250 μg/mL
[19] = M[20C]-576 90.6 μg/mL, antibiotic 500 μg/mL
[20] = M[20C]-576 90.6 μg/mL, antibiotic 1000 μg/mL
[21] = M[20C]-576 90.6 μg/mL, antibiotic 2000 μg/mL
[22] = M[20C]-576 90.6 μg/mL, antibiotic 4000 μg/mL
[23] = M[20C]-576 181.3 μg/mL, antibiotic 3.91 μg/mL
[24] = M[20C]-576 181.3 μg/mL, antibiotic 7.81 μg/mL
[25] = M[20C]-576 181.3 μg/mL, antibiotic 15.63 μg/mL
[26] = M[20C]-576 181.3 μg/mL, antibiotic 31.25 μg/mL
[27] = M[20C]-576 181.3 μg/mL, antibiotic 62.50 μg/mL
[28] = M[20C]-576 181.3 μg/mL, antibiotic 125 μg/mL
[29] = M[20C]-576 181.3 μg/mL, antibiotic 250 μg/mL
[30] = M[20C]-576 181.3 μg/mL, antibiotic 500 μg/mL
[31] = M[20C]-576 181.3 μg/mL, antibiotic 1000 μg/mL
[32] = M[20C]-576 181.3 μg/mL, antibiotic 2000 μg/mL
[33] = M[20C]-576 181.3 μg/mL, antibiotic 4000 μg/mL

Penicillin
planktonic growth relative to the growth in the absence of both extract and antibiotic (B-A17; [1]): 137% | planktonic growth relative to the growth in the absence of both extract and antibiotic (B-A17; [2]): 138% | planktonic growth relative to the growth in the absence of both extract and antibiotic (B-A17; [3]): 3% | planktonic growth relative to the growth in the absence of both extract and antibiotic (B-A17; [4]): 1% | planktonic growth relative to the growth in the absence of both extract and antibiotic (B-A17; [5]): 0% | planktonic growth relative to the growth in the absence of both extract and antibiotic (B-A17; [6]): −1% | planktonic growth relative to the growth in the absence of both extract and antibiotic (B-A17; [7]): 0% | planktonic growth relative to the growth in the absence of both extract and antibiotic (B-A17; [8]): 0% | planktonic growth relative to the growth in the absence of both extract and antibiotic (B-A17; [9]): 0% | planktonic growth relative to the growth in the absence of both extract and antibiotic (B-A17; [10]): 0% | planktonic growth relative to the growth in the absence of both extract and antibiotic (B-A17; [11]): 0% | planktonic growth relative to the growth in the absence of both extract and antibiotic (B-A17; [12]): 39% | planktonic growth relative to the growth in the absence of both extract and antibiotic (B-A17; [13]): 25% | planktonic growth relative to the growth in the absence of both extract and antibiotic (B-A17; [14]): 1% | planktonic growth relative to the growth in the absence of both extract and antibiotic (B-A17; [15]): 0% | planktonic growth relative to the growth in the absence of both extract and antibiotic (B-A17; [16]): 0% | planktonic growth relative to the growth in the absence of both extract and antibiotic (B-A17; [17]): 0% | planktonic growth relative to the growth in the absence of both extract and antibiotic (B-A17; [18]): 0% | planktonic growth relative to the growth in the absence of both extract and antibiotic (B-A17; [19]): 0% | planktonic growth relative to the growth in the absence of both extract and antibiotic (B-A17; [20]): 0% | planktonic growth relative to the growth in the absence of both extract and antibiotic (B-A17; [21]): 0% | planktonic growth relative to the growth in the absence of both extract and antibiotic (B-A17; [22]): 0% | planktonic growth relative to the growth in the absence of both extract and antibiotic (B-A17; [23]): 23% | planktonic growth relative to the growth in the absence of both extract and antibiotic (B-A17; [24]): 5% | planktonic growth relative to the growth in the absence of both extract and antibiotic (B-A17; [25]): −3% | planktonic growth relative to the growth in the absence of both extract and antibiotic (B-A17; [26]): −3% | planktonic growth relative to the growth in the absence of both extract and antibiotic (B-A17; [27]): −3% | planktonic growth relative to the growth in the absence of both extract and antibiotic (B-A17; [28]): −3% | planktonic growth relative to the growth in the absence of both extract and antibiotic (B-A17; [29]): −2% | planktonic growth relative to the growth in the absence of both extract and antibiotic (B-A17; [30]): −3% | planktonic growth relative to the growth in the absence of both extract and antibiotic (B-A17; [31]): −4% | planktonic growth relative to the growth in the absence of both extract and antibiotic (B-A17; [32]): −4% | planktonic growth relative to the growth in the absence of both extract and antibiotic (B-A17; [33]): −2% | planktonic growth relative to the growth in the absence of both extract and antibiotic (B-A21; [1]): 135% | planktonic growth relative to the growth in the absence of both extract and antibiotic (B-A21; [2]): 116% | planktonic growth relative to the growth in the absence of both extract and antibiotic (B-A21; [3]): 115% | planktonic growth relative to the growth in the absence of both extract and antibiotic (B-A21; [4]): 113% | planktonic growth relative to the growth in the absence of both extract and antibiotic (B-A21; [5]): 108% | planktonic growth relative to the growth in the absence of both extract and antibiotic (B-A21; [6]): 106% | planktonic growth relative to the growth in the absence of both extract and antibiotic (B-A21; [7]): 101% | planktonic growth relative to the growth in the absence of both extract and antibiotic (B-A21; [8]): 0% | planktonic growth relative to the growth in the absence of both extract and antibiotic (B-A21; [9]): 0% | planktonic growth relative to the growth in the absence of both extract and antibiotic (B-A21; [10]): 0% | planktonic growth relative to the growth in the absence of both extract and antibiotic (B-A21; [11]): 0% | planktonic growth relative to the growth in the absence of both extract and antibiotic (B-A21; [12]): 104% | planktonic growth relative to the growth in the absence of both extract and antibiotic (B-A21; [13]): 83% | planktonic growth relative to the growth in the absence of both extract and antibiotic (B-A21; [14]): 83% | planktonic growth relative to the growth in the absence of both extract and antibiotic (B-A21; [15]): 84% | planktonic growth relative to the growth in the absence of both extract and antibiotic (B-A21; [16]): 80% | planktonic growth relative to the growth in the absence of both extract and antibiotic (B-A21; [17]): 74% | planktonic growth relative to the growth in the absence of both extract and antibiotic (B-A21; [18]): 26% | planktonic growth relative to the growth in the absence of both extract and antibiotic (B-A21; [19]): 0% | planktonic growth relative to the growth in the absence of both extract and antibiotic (B-A21; [20]): 0% | planktonic growth relative to the growth in the absence of both extract and antibiotic (B-A21; [21]): 0% | planktonic growth relative to the growth in the absence of both extract and antibiotic (B-A21; [22]): 0% | planktonic growth relative to the growth in the absence of both extract and antibiotic (B-A21; [23]): 62% | planktonic growth relative to the growth in the absence of both extract and antibiotic (B-A21; [24]): 43% | planktonic growth relative to the growth in the absence of both extract and antibiotic (B-A21; [25]): 70% | planktonic growth relative to the growth in the absence of both extract and antibiotic (B-A21; [26]): 61% | planktonic growth relative to the growth in the absence of both extract and antibiotic (B-A21; [27]): 60% | planktonic growth relative to the growth in the absence of both extract and antibiotic (B-A21; [28]): 45% | planktonic growth relative to the growth in the absence of both extract and antibiotic (B-A21; [29]): −3% | planktonic growth relative to the growth in the absence of both extract and antibiotic (B-A21; [30]): −3% | planktonic growth relative to the growth in the absence of both extract and antibiotic (B-A21; [31]): −3% | planktonic growth relative to the growth in the absence of both extract and antibiotic (B-A21; [32]): −3% | planktonic growth relative to the growth in the absence of both extract and antibiotic (B-A21; [33]): −3%
